Test results as given in patent EP4763847A1 (Jiangsu Yahong Meditech Co., Ltd., priority 2023, dated 2025).
Like-named read-outs stand apart in the source and are kept apart here.

Experiments:
HCT116 MTAP KO = assay: Cell proliferation inhibition (CellTiter Glo), HCT116 MTAP KO cells; type: cell-based; details: cultured 6 days with compound
Protocol: (§1) Test Example 2: Test of cell proliferation inhibition activity of the compounds
(§2) HCT116-WT (ATCC, CCL-247) and HCT116 MTAP KO (Cobioer Nanjing, CBP75002) cells were seeded into white low-transparency 96-well sterile cell culture plates at a density of 250 cells per well, respectively. The culture medium was McCoy's 5A Medium + 10% FBS. The plates were incubated overnight at 37°C with 5% CO2. The cells were treated with compounds gradiently with an initial concentration of 10000 nM, 4-fold dilution, and 8 concentration points. The last two columns were control wells with only DMSO added. The treated cells were continued to be cultured for 6 days. On the seventh day, 50 µL of CellTiter Glo® reagent was added to each well. After reacting on a shaker at room temperature for 10 minutes, the chemiluminescence signal in the plate was detected using the chemiluminescence detection method on a BIOTEK H1 multi-mode plate reader. […] Table 2: IC50 values of compounds for HCT116 MTAP KO/WT cell growth inhibition

HCT116-WT = assay: Cell proliferation inhibition (CellTiter Glo), HCT116-WT cells; type: cell-based; details: cultured 6 days with compound
Protocol: as §1, §2

PRMT5-MTA [1] = target: T1, PRMT5-MTA (Homo sapiens, UniProt O14744); details: PRMT5+MTA enzyme activity inhibition; PRMT5/MET50 protein 1 nM, 5'-deoxy-5'-adenosine 1 µM, SAM 2.5 µM, Histone H4 substrate 5 nM
Protocol: (§3) The enzymatic inhibition activity of the compounds against PRMT5-MTA was detected using the AlphaScreen method. A 1× methyltransferase assay buffer IV (Signalchem) was prepared as a dilution solution for each component of the enzymatic reaction. […] The test compounds were added to all wells except the control wells in a 3-fold dilution series of 10 concentration points starting from 1000 nM using a Tecan D300e. After centrifugation at 1000 rpm for 1 minute in a centrifuge, the plate was incubated at 23°C for 15 minutes. Histone H4 substrate at a final concentration of 5 nM was added to the plate at 4 µL per well. After centrifugation at 1000 rpm for 1 minute in a centrifuge, the plate was reacted in an incubator at 23°C for 45 minutes. Anti-Histone H4 (symmetric dimethyl R3) antibody (Abcam) was pre-incubated with 50 µg/mL AlphaScreen Protein A Acceptor beads (PerkinElmer) at room temperature for 10 minutes, and then added to the plate in a volume of 10 µL per well, followed by reaction at room temperature for 1 hour. 10 µL of 50 µg/mL AlphaScreen Streptavidin Donor beads (PerkinElmer) were added to each well, and reacted at room temperature for 1 hour. The signal values in the plate were detected using the Alpha method on an Envision multi-mode plate reader. The IC50 values of the compounds for PRMT5/MET50 enzyme activity inhibition were calculated in Xlfit 5.0 software.

PRMT5-MTA [2] = target: T1, PRMT5-MTA; assay: biochemical; details: IC50 (nM), PRMT5+MTA enzyme activity inhibition; PRMT5/MET50 protein 1 nM, 5'-deoxy-5'-adenosine 1 µM, SAM 2.5 µM, Histone H4 substrate 5 nM
Protocol: as §3

T1 sequence (O14744 whole entry): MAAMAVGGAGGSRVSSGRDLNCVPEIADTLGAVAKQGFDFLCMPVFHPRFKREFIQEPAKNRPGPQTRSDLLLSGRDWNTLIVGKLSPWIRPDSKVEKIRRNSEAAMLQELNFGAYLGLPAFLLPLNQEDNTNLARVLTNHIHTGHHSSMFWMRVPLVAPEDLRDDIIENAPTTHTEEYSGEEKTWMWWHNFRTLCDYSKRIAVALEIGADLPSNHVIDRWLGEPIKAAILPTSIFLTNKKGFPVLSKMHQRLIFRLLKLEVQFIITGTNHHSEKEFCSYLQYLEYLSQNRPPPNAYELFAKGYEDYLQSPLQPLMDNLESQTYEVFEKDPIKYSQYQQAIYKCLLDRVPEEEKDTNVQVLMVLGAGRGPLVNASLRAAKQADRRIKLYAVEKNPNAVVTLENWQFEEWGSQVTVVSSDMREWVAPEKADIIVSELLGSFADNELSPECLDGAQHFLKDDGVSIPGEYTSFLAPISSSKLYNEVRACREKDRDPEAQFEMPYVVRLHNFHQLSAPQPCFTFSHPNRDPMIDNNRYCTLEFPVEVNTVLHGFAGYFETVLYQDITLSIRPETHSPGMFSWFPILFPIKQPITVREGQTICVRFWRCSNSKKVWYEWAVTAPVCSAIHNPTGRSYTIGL
T1 sequence (Q9BQA1 whole entry partner): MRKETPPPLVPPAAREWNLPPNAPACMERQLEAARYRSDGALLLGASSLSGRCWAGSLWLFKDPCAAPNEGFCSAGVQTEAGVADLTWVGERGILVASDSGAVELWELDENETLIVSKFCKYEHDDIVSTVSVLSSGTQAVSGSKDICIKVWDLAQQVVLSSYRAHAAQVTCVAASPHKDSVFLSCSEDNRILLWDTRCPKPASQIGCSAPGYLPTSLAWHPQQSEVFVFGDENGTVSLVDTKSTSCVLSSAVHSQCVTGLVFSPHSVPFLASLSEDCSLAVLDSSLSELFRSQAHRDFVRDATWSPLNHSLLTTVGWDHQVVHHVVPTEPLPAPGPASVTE

Row | IC50 (PRMT5-MTA [2]) [nM] | IC50 (HCT116 MTAP KO; Homo sapiens, HCT-116, 144 h) [nM] | IC50 (HCT116-WT; 144 h) [nM] | Compound | IC50 (HCT116 MTAP KO) [nM] | IC50 (HCT116-WT) [nM] | IC50 (PRMT5-MTA [1]) [nM]
1 | 3.1 | 353 | 5700 | CN/C(N)=N\c1ccc(C(=O)N(Cc2ccc3nn(C)cc3c2)[C@H](C)c2ccccc2F)cn1 [Compound 97, (R,Z)-6-((amino(methylamino)methylene)amino)-N-(1-(2-fluorophenyl)ethyl)-N-((2-methyl-2H-indazol-5-yl)methyl)nicotinamide] | – | – | –
2 | 8.7 | 64 | 1090 | CNC(N)=Nc1ccc(C(=O)N(Cc2ccc3cnccc3c2)[C@H](C)c2ccccc2F)cn1 [Compound 98] | – | – | –
3 | 4.6 | 445 | 3330 | CNC(N)=Nc1ccc(C(=O)N(Cc2ccccc2)[C@H](C)c2ccccc2F)cn1 [Compound 99] | – | – | –
4 | 3.1 | 352 | 1790 | CNC(N)=Nc1ccc(C(=O)N(Cc2ccc(F)c(C)c2)[C@H](C)c2ccccc2F)cn1 [Compound 101] | – | – | –
5 | 2.6 | 50 | 667 | CNC(N)=Nc1ccc(C(=O)N(Cc2ccc3c(cnn3C)c2)[C@H](C)c2ccccc2F)cn1 [Compound 102] | – | – | –
6 | 5.7 | 263 | 2230 | CNC(N)=Nc1ccc(C(=O)N(Cc2ccc3ccsc3c2)[C@H](C)c2ccccc2F)cn1 [Compound 105] | – | – | –
7 | 5.9 | 601 | 2890 | CNC(N)=Nc1ccc(C(=O)N(Cc2cccc(Cl)c2)[C@H](C)c2ccccc2F)cn1 [Compound 106] | – | – | –
8 | 4 | 474 | 8230 | CNC(N)=Nc1ccc(C(=O)N(Cc2ccncc2)[C@H](C)c2ccccc2F)cn1 [Compound 107] | – | – | –
9 | 7.9 | 48 | 452 | CNC(N)=Nc1ccc(C(=O)N(Cc2ccc(C(F)(F)F)cc2)[C@H](C)c2ccccc2F)cn1 [Compound 108] | – | – | –
10 | 5.8 | 658 | 7720 | CNC(N)=Nc1ccc(C(=O)N(Cc2ccc(C)nc2)[C@H](C)c2ccccc2F)cn1 [Compound 109] | – | – | –
11 | 6.2 | 508 | 3660 | CNC(N)=Nc1ccc(C(=O)N(Cc2cccc(F)c2)[C@H](C)c2ccccc2F)cn1 [Compound 110] | – | – | –
12 | 6.1 | 304 | 2340 | CNC(N)=Nc1ccc(C(=O)N(Cc2ccc(F)cc2)[C@H](C)c2ccccc2F)cn1 [Compound 112] | – | – | –
13 | 5.4 | 233 | 2520 | CNC(N)=Nc1ccc(C(=O)N(Cc2ccc(-c3cnn(C)c3)cn2)[C@H](C)c2ccccc2F)cn1 [Compound 129] | – | – | –

Further lines, the compound ahead of its results:

Row | Compound | IC50 (PRMT5-MTA [2]) [nM] | IC50 (HCT116 MTAP KO; Homo sapiens, HCT-116, 144 h) [nM] | IC50 (HCT116-WT; 144 h) [nM] | IC50 (HCT116 MTAP KO) [nM] | IC50 (HCT116-WT) [nM] | IC50 (PRMT5-MTA [1]) [nM]
14 | 6-((isobutyrylamido(methylamino)methylene)amino)-N-(1-(pyrimidin-2-yl)ethyl)-N-((5 -(trifluoromethyl)pyridin-2-yl)methyl)nicotinamide [Compound 29] | – | – | – | 590 | 3730 | 8.2
15 | CNC(N)=Nc1ccc(C(=O)N(Cc2cscn2)[C@H](C)c2ccccc2F)cn1 [Compound 104] | 5.8 | 416 | > 10000 | – | – | –
16 | CNC(N)=Nc1ccc(C(=O)N(Cc2ccccn2)[C@H](C)c2ccccc2F)cn1 [Compound 111] | 3.7 | 496 | 6450 | – | – | –
17 | CNC(N)=Nc1ccc(C(=O)N(Cc2ccc(C(F)(F)F)cn2)N(C)c2ncccn2)cn1 [Compound 113] | 3.2 | 49 | 2650 | – | – | –
18 | CN/C(N)=N\c1ccc(C(=O)N(Cc2ccc(C(F)(F)F)cn2)[C@H]2CCCc3ccccc32)cn1 [Compound 114, (S,Z)-6-((amino(methylamino)methylene)amino)-N-(1,2,3,4-tetrahydronaphthalen-1-yl) -N-((5-(trifluoromethyl)pyridin-2-yl)methyl)nicotinamide] | 3.2 | 612 | 2970 | – | – | –
19 | CNC(N)=Nc1ccc(C(=O)N(Cc2ccc(C(F)(F)F)cn2)C(C)c2ccccc2C(F)(F)F)cn1 (stereo not drawn) [Compound 115] | 0.9 | 942 | 3180 | – | – | –
20 | NC(=Nc1ccc(C(=O)N(Cc2ccc(C(F)(F)F)cn2)C2CCCc3ccccc32)cn1)NO (stereo not drawn) [Compound 116] | 3.4 | 63 | 307 | – | – | –
21 | NC(=Nc1ccc(C(=O)N(Cc2ccc(C(F)(F)F)cn2)C2CCCc3cccnc32)cn1)NO (stereo not drawn) [Compound 117] | 5.7 | 21 | 115 | – | – | –
22 | CN/C(N)=N\c1ccc(C(=O)N(Cc2ccc(C(F)(F)F)cn2)C(C)c2ccc(F)cc2)cn1 (stereo not drawn) [Compound 118, (Z)-6-((amino(methylamino)methylene)amino)-N-(1-(4-fluorophenyl)ethyl)-N-((5-(trifluoromethyl)pyridin-2-yl)methyl)nicotinamide] | 1.5 | 454 | 2700 | – | – | –
23 | CN/C(N)=N\c1ccc(C(=O)N(Cc2ccc(-c3ccc(N4CCN(C)CC4)nc3)cn2)[C@H](C)c2ccccc2F)cn1 [Compound 130, (R,Z)-6-((amino(methylamino)methylene)amino)-N-(1-(2-fluorophenyl)ethyl)-N-((6'-(4-methylpiperazin-1-yl)-[3,3'-bipyridin]-6-yl)methyl)nicotinamide] | 9.7 | 329 | 1570 | – | – | –
24 | CNC(N)=Nc1ccc(C(=O)N(Cc2ccc(C(F)(F)F)cn2)C2CCCc3cccc(F)c32)cn1 (stereo not drawn) [compound 93] | 7.1 | 33 | 504 | – | – | –
25 | CNC(N)=Nc1ccc(C(=O)N(Cc2ccc(C(F)(F)F)cn2)C(C)c2cccc(F)c2)cn1 (stereo not drawn) [compound 119] | 1.3 | 398 | 2790 | – | – | –
